Test results published in publication PMC12299890 (Pharmaceuticals, 2025).
“Also recorded” adds a separate entry of the source.

Tests used:
[1] = Pharmacokinetics of MI in Wistar rat model after oral administration (Antonowski and co-workers); type: in vivo; settings: rat serum; MI data of ref 30 vs SCI of this study
Description: Antonowski and co-workers examined the PK of MI in Wistar rat models.
Bioavailability studies in animal models are a critical step in evaluating how much of a substance is absorbed and becomes available in the body. A rat model is excellent to maximize the relevance of SCI to human health. Antonowski and co-workers used a rat model for the PK analysis of MI. In this study, a dose of 20 mg/kg MI was orally administrated to rats and afterwards, the serum concentration of MI was measured. […] Then, the concentration of MI began to decrease immediately. […] Studies should be extended to include intraperitoneal injection or direct injection into blood vessels to determine the bioactivity of these INSs.

[2] = cited from earlier work
[3] = parameters: method as in PMID 16250252; settings: male Sprague-Dawley rats; cited from earlier work

SMILES	AUC of MI compared with SCI [1]	Side effects of MI administration ([2]; oral MI)	Time of highest MI serum concentration (Cmax) after oral administration ([2]; serum, oral 20 mg/kg MI)	MI level 24 h after administration ([2]; serum, oral MI)	Relative bioavailability of oral administration compared to intraperitoneal injection [3]
O[C@H]1[C@H](O)[C@@H](O)[C@H](O)[C@@H](O)[C@H]1O [MI, myo-inositol]	lower than for SCI	no serious side effects	first hour	still higher than before the administration; also recorded: still higher than before the supplementation	–
O=C(O)[C@H]1O[C@@H](Oc2cc3oc(-c4ccc(O)cc4)cc(=O)c3c(O)c2O)[C@H](O)[C@@H](O)[C@@H]1O [scutellarin]	–	–	–	–	very low
